Measured values as given in publication PMC5352362, “Molecular and functional evaluation of a novel HIF inhibitor, benzopyranyl 1,2,3-triazole compound” (Oncotarget, 2016).

Columns and labels:
HIF-1α = HIF-1α (Homo sapiens, UniProt Q16665); assay: Immunofluorescence of nuclear HIF-1α in A549 cells; assay type: cell-based; settings: 1–100 nM, hypoxia 16 h
Procedure: To further confirm the effects of Compound 12 on the inhibition of HIF-1α protein expression, we performed an immunofluorescent assay in A549 cells. Cells were treated with Compound 12 (1–100 nM) for 16 h under hypoxic conditions, and were then fixed with paraformaldehyde. Fixed cells were processed to allow immunostaining of HIF-1α by a HIF-1α antibody.
Figure 4 Compound 12 increased hydroxylation and proteasome-mediated degradation of HIF-1α (A) A549 cells were treated with Compound 12 (at concentrations of 0 nM, 1 nM, 10 nM, and 100 nM) for 16 h. […] Cells were immediately treated with cycloheximide (CHX, 100 μg/mL) for the time indicated, and HIF-1α protein levels were determined by western blotting. β-actin was used as an internal control. Half-life (t1/2) of HIF-1α protein was determined using relative expression levels of HIF-1α. […] The expression levels of HIF-1α, hydroxylated (OH)-HIF-1α at P402 or P564, and PHD2 were determined via western blotting using specific antibodies. […] Relative levels of ubiquitinated HIF-1α were quantified and graphed.
Cells were cultured on coverslips in four-well plates at a density of 1 × 10^5 cells/well, and allowed to attach for 24 h. […] Coverslips were mounted on slides, and cells were observed using fluorescence microscopy at 400X magnification (Carl Zeiss, AG, Germany).

HUVECs = assay: Transwell cell migration assay, VEGF-induced; assay type: cell-based, human; settings: VEGF 20 ng/mL, 24 h
Procedure: Figure 5 Compound 12 suppressed HIF-1α target gene expression, and confirmation of in vitro results via determination of effects on angiogenesis in vivo (A) A549 cells were treated with Compound 12 (at concentrations of 0 nM, 1 nM, 10 nM, and 100 nM) for 16 h. The mRNA levels of HIF-1α target genes were determined by semiquantitative RT-PCR. β-actin was used as an internal control. D. DMSO vehicle control. N, normoxia; H, hypoxia. (B) A549 cells were treated with serum-reduced culture media containing Compound 12 (at concentrations of 0 nM, 10 nM, and 100 nM) for 16 h. Media supernatant was collected, and secreted VEGF was determined by ELISA after removal of cellular debris. N, normoxia; H, hypoxia. **P < 0.01 versus hypoxia (H) DMSO (D)-treated control. (C) HUVECs were treated with Compound 12, at the indicated concentrations, in the presence of VEGF (20 ng/mL) for 24 h in 1% serum-containing media. […] Cells that migrated through the membrane (8 μm pore size) were stained with hematoxylin and eosin, pictured as shown in upper panel, and counted (graph). *P < 0.05, **P < 0.01 versus VEGF-treated control. […] (F) Compound 12 (0.1 μg and 1 μg dosages) and retinoic acid (RA, positive control) were applied to the ED 4.5 CAM for two days, neovessel formation from the large vessels was observed, and percentages of positive angiogenic eggs (from total eggs tested) were calculated. […]

Chain of HIF-1α (Q16665 whole entry): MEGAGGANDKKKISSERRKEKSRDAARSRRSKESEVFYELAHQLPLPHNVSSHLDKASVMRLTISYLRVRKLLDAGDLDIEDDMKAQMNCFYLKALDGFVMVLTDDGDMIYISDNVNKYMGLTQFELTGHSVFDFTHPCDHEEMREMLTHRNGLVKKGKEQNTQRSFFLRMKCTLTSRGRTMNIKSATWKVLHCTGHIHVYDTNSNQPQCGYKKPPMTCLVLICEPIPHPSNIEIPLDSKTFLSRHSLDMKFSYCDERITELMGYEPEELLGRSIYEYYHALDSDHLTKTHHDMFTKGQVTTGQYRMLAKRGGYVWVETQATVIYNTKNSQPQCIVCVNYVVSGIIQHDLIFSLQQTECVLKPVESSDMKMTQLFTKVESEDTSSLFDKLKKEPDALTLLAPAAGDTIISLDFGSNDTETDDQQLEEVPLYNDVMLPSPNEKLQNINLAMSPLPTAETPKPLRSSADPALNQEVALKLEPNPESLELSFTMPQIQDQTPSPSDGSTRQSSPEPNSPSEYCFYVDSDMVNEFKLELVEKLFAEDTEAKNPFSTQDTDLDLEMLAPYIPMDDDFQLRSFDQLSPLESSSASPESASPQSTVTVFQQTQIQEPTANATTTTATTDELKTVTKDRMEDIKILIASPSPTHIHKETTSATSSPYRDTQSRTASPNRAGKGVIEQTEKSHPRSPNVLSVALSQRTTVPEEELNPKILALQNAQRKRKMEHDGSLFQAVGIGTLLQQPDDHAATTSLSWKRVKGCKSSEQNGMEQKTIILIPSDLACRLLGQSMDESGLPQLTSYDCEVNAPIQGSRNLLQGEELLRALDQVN

COc1ccc(-c2cn(CC3(C)C=Cc4cc([N+](=O)[O-])ccc4O3)nn2)cc1 (stereo not drawn) [Compound 12, 4-(4-methoxyphenyl)-1-((2-methyl-6-nitro-2H-chromen-2-yl)methyl)-1H-1,2,3-triazole]
accumulation of nuclear HIF-1α (HIF-1α): inhibited in dose-dependent manner | subcellular localization of HIF-1α (HIF-1α): did not affect | VEGF-induced endothelial migration (HUVECs): significantly inhibited
